One assay concerns the target PYK2 (Homo sapiens, UniProt Q14289). As to the kind of experiment: Kinase profiler assay, PYK2. In kind it is biochemical. The following applies: 10 concentrations, 100 µM highest; Table S3. The procedure:
(§1) The effects of LLL12 on twenty six purified human protein kinases were performed at the Millipore UK Limited (Dundee, UK) and Reaction Biology Corp. (Malvern, PA) using the Kinase profiler assay. Assays contained a peptide substrate, purified recombinant human protein kinases to be tested, and gamma-labeled ATP, magnesiumion. Radioactive phosphorylated product was measured and quantitated via a scintillation counter.

The next assay concerns the target Fyn (Homo sapiens, UniProt P06241). As to the kind of experiment: Kinase profiler assay, Fyn. It is filed as biochemical. The following applies: 10 concentrations, 100 µM highest; Table S3. The procedure: as §1
The target of another assay is AKT1 (Homo sapiens, UniProt P31749). As to the kind of experiment: Kinase profiler assay, AKT1. In kind it is biochemical. The following applies: bound stated jointly for the other protein kinases; Table S3. As for the experimental part:
as §1

The target in another assay is ErB2/HER2 (Homo sapiens, UniProt P04626). The following applies: read-out: IC50 on ErB2/HER2; bound stated jointly for the other protein kinases; Table S3. As for the experimental part:
as §1

Assay [1] relates to STAT3 target genes Cyclin D1, survivin, Bcl-2 and Twist1. As to the kind of experiment: Expression of STAT3 target genes in un-separated breast cancer cells. In kind it is cell-based, human. The following applies: un-separated MDA-MB-231, SK-BR-3, SUM159 cells; 10 µM, 24 hours. The procedure: (§2) LLL12 was synthesized in Dr. Pui-Kai Li’s laboratory (College of Pharmacy, The Ohio State University). Un-separated cells were treated with 10 µM of LLL12 or DMSO for 24 hours, and the phosphorylation of STAT3 (Y705), and ERK 1/2 (T202/Y204), and expression of STAT3 downstream genes, cleaved caspase-3, and PARP were detected by Western blots. (JPG) Click here for additional data file.

For assay [2], the system named is MDA-MB-231, SK-BR-3, and SUM159 breast cancer cell lines. As to the kind of experiment: Apoptosis (cleaved PARP and Caspase-3) in un-separated breast cancer cells. In kind it is cell-based, human. The following applies: un-separated MDA-MB-231, SK-BR-3, SUM159 cells; 10 µM, 24 hours. As for the experimental part: (§3) After sorting by flow cytometry, ALDH^+ and ALDH^+/CD44^+/CD24^− stem-like cells were cultured in serum-free stem cell medium in ultra-low attachment six-well plates (Corning) to maintain cancer stem cell characteristics. ALDH^−, ALDH^−/CD44^+/CD24^+cells and un-separated cells were cultured in regular medium and replaced with identical stem cell medium for three days before being harvested. To assess the effects of STAT3 inhibitors, ALDH^+ and ALDH^+/CD44^+/CD24^− subpopulations of breast cancer cells were treated with LLL12 (5 µmol/L) of or static (10 µmol/L) for 24 hours. STAT3, or control GFP shRNA lentivirus (CTL ShRNA) was introduced into ALDH^+ breast cancer stem-like cells for 48 hours, then followed by selection with puromycin (0.2 µg/ml) for 72 hours. Antibodies (Cell Signaling Tech.) against phospho-specific STAT3 (Tyrosine 705) (P-STAT3, Y705), ERK1/2 (Threonine 202/Tyrosine 204), cleaved Poly (ADP-ribose) polymerase (PARP), ALDH1, cleaved caspase-3, and GAPDH were used for western blots.
as §2

The test system of assay [3] is mTOR and AKT phosphorylation. As to the kind of experiment: mTOR and AKT phosphorylation in ALDH+ cells. In kind it is cell-based, human. The following applies: ALDH+ subpopulation, all three cell lines; 5 µmol/L, 24 hours. The procedure: as §3
The subject of assay [4] is ALDH+ subpopulation from MDA-MB-231, SUM159, and SK-BR3 cells. As to the kind of experiment: MTT cell viability assay, ALDH+ subpopulation. It is filed as cell-based, human. The following applies: 1 to 10 µmol/L 72 hours, ShRNA 48 hours. The procedure:
(§4) The breast cancer cells were seeded in 96-well plates (3,000 cells/well) in triplicates in a serum-free mammary epithelial basal medium. The following day, cancer cells were treated with 1 to 10 µmol/L of LLL12 or Stattic for 72 hours, STAT3 ShRNA or control GFP shRNA lentivirus (CTL ShRNA) for 48 hours. MTT (Thiazolyl Blue Tetrazolium Bromide, Sigma-Aldrich) assay was used to determine the cell viability.
(Tetrazolium assays rely on reduction of a dye to a coloured formazan, in cell work by metabolically active cells.)

Assay [5] deals with MDA-MB-231 ALDH+ breast cancer stem-like cells. As to the kind of experiment: Mouse xenograft of MDA-MB-231 ALDH+ breast cancer stem-like cells. In kind it is in vivo, NOD/SCID mice. The following applies: 5 mg/kg IP daily. The procedure: All animal studies were conducted in accordance with the principles and standard procedures approved by IACUC at the Research Institute at Nationwide Children’s Hospital and the University Committee on the Use and Care of Animals at the University of Michigan. ALDH^+ subpopulations of MDA-MB-231 and ALDH^+/CD44^+/CD24^− subpopulations of SUM-159 breast cancer cells (1×10^5) respectively were injected subcutaneous (s.c.) into the flank area of female Non-obese diabetic (NOD)/Severe combined immunodeficiency (SCID) mice which were purchased from Jackson Laboratory.

Assay [6] relates to ALDH+/CD44+/CD24− subpopulation of MDA-MB-231 and SUM159. As to the kind of experiment: Caspase-3 cleavage in ALDH+/CD44+/CD24− cells. It is filed as cell-based, human. The following applies: 0.5–5 µM. As for the experimental part: The ALDEFLUOR kit (StemCell Technologies) was used to isolate the population with high ALDH enzymatic activity as previously described. Briefly, cells were trypsinized to single cells using 0.05% trypsin and subsequently suspended in ALDEFLUOR assay buffer containing ALDH substrate (BAAA, 1 µmol/l per 1×10^6 cells) and then incubated for 40 minutes at 37°C. For each sample, an aliquot of cells was stained under identical conditions with 15 mmol/L diethylaminobenzaldehyde (DEAB), a specific ALDH inhibitor, as an ALDH^− control. Anti-human PE-CD24 and PE-Cy5-CD44 antibody (BioLegend) were used for CD44/CD24 identification and to separate ALDH^+/CD44^+/CD24^− and ALDH^−/CD44^+/CD24^+ cells when combined with ALDH staining. Analysis was performed using a FACStarPLUS (Becton Dickinion) flow cytometer. To assess the effect of STAT3 inhibitors on the subpopulation of ALDH^+ cells, un-separated breast cancer cells were treated with 5 µmol/L of LLL12 or 10 µmol/L Stattic for 24 hours prior to performing the ALDEFLUOR assay.
After sorting by flow cytometry, ALDH^+ and ALDH^+/CD44^+/CD24^− stem-like cells were cultured in serum-free stem cell medium in ultra-low attachment six-well plates (Corning) to maintain cancer stem cell characteristics. […]

Assay [7] has as its system ALDH+/CD44+/CD24− subpopulation of MDA-MB-231 and SUM159 breast cancer cells. As to the kind of experiment: Cell viability of ALDH+/CD44+/CD24− subpopulation. In kind it is cell-based, human. The following applies: Figure 5D. The procedure:
as §4

The subject of another assay is STAT1. The following applies: cited from earlier work.

Chain of ErB2/HER2 (P04626 23-1255): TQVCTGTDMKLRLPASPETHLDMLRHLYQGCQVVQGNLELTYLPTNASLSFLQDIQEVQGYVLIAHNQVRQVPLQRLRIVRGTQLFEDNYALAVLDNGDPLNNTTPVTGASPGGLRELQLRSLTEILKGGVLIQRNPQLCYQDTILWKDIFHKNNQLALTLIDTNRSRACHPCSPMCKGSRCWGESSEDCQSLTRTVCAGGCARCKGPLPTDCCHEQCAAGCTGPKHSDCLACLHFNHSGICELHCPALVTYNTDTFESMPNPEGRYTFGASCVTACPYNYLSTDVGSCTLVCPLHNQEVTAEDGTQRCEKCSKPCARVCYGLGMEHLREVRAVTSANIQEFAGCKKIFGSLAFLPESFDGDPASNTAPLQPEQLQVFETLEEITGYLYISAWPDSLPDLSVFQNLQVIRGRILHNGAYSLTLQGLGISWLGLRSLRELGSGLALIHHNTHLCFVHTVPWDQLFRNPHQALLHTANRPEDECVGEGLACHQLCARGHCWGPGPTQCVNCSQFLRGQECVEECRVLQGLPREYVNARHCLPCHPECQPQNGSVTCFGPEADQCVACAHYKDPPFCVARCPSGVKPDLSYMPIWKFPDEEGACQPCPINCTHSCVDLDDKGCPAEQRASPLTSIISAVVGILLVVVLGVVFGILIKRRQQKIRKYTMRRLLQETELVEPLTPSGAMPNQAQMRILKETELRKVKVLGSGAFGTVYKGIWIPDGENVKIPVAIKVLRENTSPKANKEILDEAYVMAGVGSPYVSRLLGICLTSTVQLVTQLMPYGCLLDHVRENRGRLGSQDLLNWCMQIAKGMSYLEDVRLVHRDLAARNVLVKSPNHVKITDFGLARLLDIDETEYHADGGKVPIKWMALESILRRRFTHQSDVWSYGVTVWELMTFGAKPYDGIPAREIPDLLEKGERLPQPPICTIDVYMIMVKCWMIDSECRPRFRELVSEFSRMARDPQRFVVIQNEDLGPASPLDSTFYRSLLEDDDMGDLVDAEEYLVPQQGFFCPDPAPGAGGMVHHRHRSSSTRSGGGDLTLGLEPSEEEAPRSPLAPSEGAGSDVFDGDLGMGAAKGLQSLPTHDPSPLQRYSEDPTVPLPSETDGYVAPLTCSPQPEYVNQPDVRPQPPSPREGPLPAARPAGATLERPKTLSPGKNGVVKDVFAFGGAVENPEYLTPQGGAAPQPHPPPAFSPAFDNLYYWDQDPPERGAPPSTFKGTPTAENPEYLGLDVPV
Chain of AKT1 (P31749 whole entry): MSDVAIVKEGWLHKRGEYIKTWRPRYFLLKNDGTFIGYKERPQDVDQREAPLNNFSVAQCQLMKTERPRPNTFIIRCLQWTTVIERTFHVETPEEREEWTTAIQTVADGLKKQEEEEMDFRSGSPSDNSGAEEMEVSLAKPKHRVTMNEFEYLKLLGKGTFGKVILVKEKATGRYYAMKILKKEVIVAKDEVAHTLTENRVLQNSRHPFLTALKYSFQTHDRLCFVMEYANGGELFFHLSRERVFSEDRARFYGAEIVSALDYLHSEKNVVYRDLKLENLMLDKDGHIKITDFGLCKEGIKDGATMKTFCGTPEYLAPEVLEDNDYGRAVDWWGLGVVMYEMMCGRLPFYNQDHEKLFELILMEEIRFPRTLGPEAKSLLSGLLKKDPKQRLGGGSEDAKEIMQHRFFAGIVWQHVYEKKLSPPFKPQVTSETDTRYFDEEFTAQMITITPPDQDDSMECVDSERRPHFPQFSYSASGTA
Chain of Fyn (P06241 whole entry): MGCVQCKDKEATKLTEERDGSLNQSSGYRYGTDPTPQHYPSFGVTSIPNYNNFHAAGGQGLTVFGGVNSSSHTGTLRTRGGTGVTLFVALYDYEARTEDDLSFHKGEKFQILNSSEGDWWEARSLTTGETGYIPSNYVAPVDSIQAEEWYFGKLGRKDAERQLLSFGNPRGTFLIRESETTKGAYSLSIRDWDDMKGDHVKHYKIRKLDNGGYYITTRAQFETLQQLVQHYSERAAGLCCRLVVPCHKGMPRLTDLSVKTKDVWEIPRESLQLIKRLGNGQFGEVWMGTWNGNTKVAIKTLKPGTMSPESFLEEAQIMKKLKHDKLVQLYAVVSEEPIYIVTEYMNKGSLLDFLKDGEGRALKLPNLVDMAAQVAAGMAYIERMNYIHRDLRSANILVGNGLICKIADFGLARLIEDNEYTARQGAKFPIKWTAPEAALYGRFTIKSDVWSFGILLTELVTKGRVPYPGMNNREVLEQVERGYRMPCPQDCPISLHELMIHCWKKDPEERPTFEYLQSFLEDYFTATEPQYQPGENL
Chain of PYK2 (Q14289 whole entry): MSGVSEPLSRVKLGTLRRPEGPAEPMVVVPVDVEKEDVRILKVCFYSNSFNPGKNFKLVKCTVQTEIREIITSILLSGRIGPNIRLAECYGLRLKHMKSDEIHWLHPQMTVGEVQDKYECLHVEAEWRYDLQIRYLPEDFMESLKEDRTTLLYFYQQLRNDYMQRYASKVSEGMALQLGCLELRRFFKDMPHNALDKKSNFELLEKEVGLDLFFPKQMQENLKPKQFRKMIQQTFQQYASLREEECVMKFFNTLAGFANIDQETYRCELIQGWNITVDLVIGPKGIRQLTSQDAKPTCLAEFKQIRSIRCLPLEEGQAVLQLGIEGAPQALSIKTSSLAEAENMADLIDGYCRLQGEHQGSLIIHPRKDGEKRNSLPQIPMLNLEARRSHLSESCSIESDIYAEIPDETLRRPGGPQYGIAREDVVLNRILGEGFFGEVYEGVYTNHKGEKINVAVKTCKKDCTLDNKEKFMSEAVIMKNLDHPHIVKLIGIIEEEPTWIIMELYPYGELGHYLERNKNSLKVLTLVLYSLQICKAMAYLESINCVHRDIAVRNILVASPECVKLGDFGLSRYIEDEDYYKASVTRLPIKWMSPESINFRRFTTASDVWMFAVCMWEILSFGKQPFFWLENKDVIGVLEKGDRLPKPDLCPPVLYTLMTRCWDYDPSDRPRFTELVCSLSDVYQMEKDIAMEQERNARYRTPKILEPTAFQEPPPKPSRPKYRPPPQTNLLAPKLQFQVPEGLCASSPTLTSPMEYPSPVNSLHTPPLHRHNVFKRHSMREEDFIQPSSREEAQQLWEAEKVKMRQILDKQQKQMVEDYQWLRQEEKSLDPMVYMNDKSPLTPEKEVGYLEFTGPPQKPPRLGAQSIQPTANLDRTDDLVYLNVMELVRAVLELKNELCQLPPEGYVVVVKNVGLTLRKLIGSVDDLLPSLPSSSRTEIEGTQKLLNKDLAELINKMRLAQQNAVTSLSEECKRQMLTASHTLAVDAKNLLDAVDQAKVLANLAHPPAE

Take `NS(=O)(=O)c1cccc2c1C(=O)c1cccc(O)c1C2=O` [LLL12]: the IC50 is over 100 µM against PYK2, over 100 µM against Fyn, at least 77.9 µM on AKT1 and at least 77.9 µM on ErB2/HER2. Also, the “expression of STAT3 target genes Cyclin D1, survivin, Bcl-2 and Twist1” value in assay [1] is “inhibited”. Besides, in assay [2], the “apoptosis (cleaved PARP and Caspase-3)” value is given as “induced apoptosis”. The “mTOR and AKT phosphorylation” value in assay [3] was “almost no effect”. For the same compound, the “cell viability of the ALDH+ subpopulation” value in assay [4] is “inhibit”. The tumor volume result in [5] (15 days, P<0.05 vs vehicle) was “significantly suppressed”. Moreover, in assay [5] (15 days, P<0.05 vs vehicle), the tumor weight result is “significantly suppressed”. Further, the “P-STAT3 in tumor tissue” value in [5] (Western blot of tumors) is listed as “decreased”. Besides, in assay [5] (Western blot of tumors), the “cleaved caspase-3 in tumor tissue” value is “increased”. Besides, the caspase-3 cleavage entry in assay [6] was “induced caspase-3 cleavage”. In addition, in [7], the cell viability result is recorded as “inhibited”. Further, the “STAT1 DNA binding activity” value with STAT1 is recorded as “not”.

The values are drawn from publication PMC3871589, “Evaluation of STAT3 Signaling in ALDH+ and ALDH+/CD44+/CD24− Subpopulations of Breast Cancer Cells” (PLoS ONE, 2013).
